Details: Liquid

OCCO [1,2-ethanediol]
Details | specific volume [m3/kg]
273.15 K, 100 kPa, Vibrating tube method | 0.0008871
274.14 K, 100 kPa, Vibrating tube method | 0.0008876
275.14 K, 100 kPa, Vibrating tube method | 0.0008882
276.15 K, 100 kPa, Vibrating tube method | 0.0008887
277.15 K, 100 kPa, Vibrating tube method | 0.0008893
278.15 K, 100 kPa, Vibrating tube method | 0.0008898
279.15 K, 100 kPa, Vibrating tube method | 0.0008904
280.15 K, 100 kPa, Vibrating tube method | 0.0008909
281.15 K, 100 kPa, Vibrating tube method | 0.0008915
282.15 K, 100 kPa, Vibrating tube method | 0.000892
283.15 K, 100 kPa, Vibrating tube method | 0.0008926
284.15 K, 100 kPa, Vibrating tube method | 0.0008931
285.15 K, 100 kPa, Vibrating tube method | 0.0008937
286.15 K, 100 kPa, Vibrating tube method | 0.0008942
287.15 K, 100 kPa, Vibrating tube method | 0.0008948
288.09 K, 99800 kPa, Bellows volumetry | 0.0008687
288.12 K, 348700 kPa, Bellows volumetry | 0.0008241
288.15 K, 100 kPa, Vibrating tube method | 0.0008954
288.15 K, 299700 kPa, Bellows volumetry | 0.0008313
288.15 K, 349400 kPa, Bellows volumetry | 0.0008238
288.16 K, 100 kPa, Vibrating tube method | 0.0008954
288.17 K, 150000 kPa, Bellows volumetry | 0.0008579
288.17 K, 248800 kPa, Bellows volumetry | 0.0008395
288.17 K, 298500 kPa, Bellows volumetry | 0.0008314
288.17 K, 350400 kPa, Bellows volumetry | 0.0008236
288.18 K, 48900 kPa, Bellows volumetry | 0.0008815
288.18 K, 99800 kPa, Bellows volumetry | 0.0008684
288.18 K, 149400 kPa, Bellows volumetry | 0.0008577
288.18 K, 198100 kPa, Bellows volumetry | 0.0008485
288.18 K, 299200 kPa, Bellows volumetry | 0.0008312
288.19 K, 49200 kPa, Bellows volumetry | 0.0008811
288.19 K, 249300 kPa, Bellows volumetry | 0.0008392
288.2 K, 248600 kPa, Bellows volumetry | 0.0008396
288.21 K, 100 kPa, Vibrating tube method | 0.0008954
288.21 K, 49000 kPa, Bellows volumetry | 0.0008815
288.21 K, 199700 kPa, Bellows volumetry | 0.0008479
288.22 K, 100 kPa, Vibrating tube method | 0.0008954
288.23 K, 149400 kPa, Bellows volumetry | 0.000858
288.24 K, 99600 kPa, Bellows volumetry | 0.0008688
288.24 K, 199700 kPa, Bellows volumetry | 0.0008482
289.15 K, 100 kPa, Vibrating tube method | 0.0008959
290.15 K, 100 kPa, Vibrating tube method | 0.0008965
291.15 K, 100 kPa, Vibrating tube method | 0.000897
292.15 K, 100 kPa, Vibrating tube method | 0.0008976
293.15 K, 100 kPa, Vibrating tube method | 0.0008982
294.15 K, 100 kPa, Vibrating tube method | 0.0008987
295.15 K, 100 kPa, Vibrating tube method | 0.0008993
296.15 K, 100 kPa, Vibrating tube method | 0.0008998
297.15 K, 100 kPa, Vibrating tube method | 0.0009004
298.16 K, 100 kPa, Vibrating tube method | 0.000901
299.16 K, 100 kPa, Vibrating tube method | 0.0009016
300.16 K, 100 kPa, Vibrating tube method | 0.0009021
301.16 K, 100 kPa, Vibrating tube method | 0.0009027
302.16 K, 100 kPa, Vibrating tube method | 0.0009033
303.15 K, 100 kPa, Vibrating tube method | 0.0009038
304.16 K, 100 kPa, Vibrating tube method | 0.0009044
305.15 K, 100 kPa, Vibrating tube method | 0.000905
306.15 K, 100 kPa, Vibrating tube method | 0.0009056
307.15 K, 100 kPa, Vibrating tube method | 0.0009061
308.15 K, 100 kPa, Vibrating tube method | 0.0009067
309.15 K, 100 kPa, Vibrating tube method | 0.0009073
310.15 K, 100 kPa, Vibrating tube method | 0.0009079
311.15 K, 100 kPa, Vibrating tube method | 0.0009085
312.15 K, 100 kPa, Vibrating tube method | 0.0009091
313.15 K, 100 kPa, Vibrating tube method | 0.0009097

CC(O)CO (stereo not given) [1,2-propanediol]
Details | specific volume [m3/kg]
273.15 K, 100 kPa, Vibrating tube method | 0.0009519
274.15 K, 100 kPa, Vibrating tube method | 0.0009525
275.15 K, 100 kPa, Vibrating tube method | 0.0009532
276.15 K, 100 kPa, Vibrating tube method | 0.0009538
277.15 K, 100 kPa, Vibrating tube method | 0.0009544
278.15 K, 100 kPa, Vibrating tube method | 0.0009551
279.15 K, 100 kPa, Vibrating tube method | 0.0009557
280.15 K, 100 kPa, Vibrating tube method | 0.0009563
281.15 K, 100 kPa, Vibrating tube method | 0.000957
282.16 K, 100 kPa, Vibrating tube method | 0.0009576
283.16 K, 100 kPa, Vibrating tube method | 0.0009583
284.16 K, 100 kPa, Vibrating tube method | 0.0009589
285.16 K, 100 kPa, Vibrating tube method | 0.0009596
286.16 K, 100 kPa, Vibrating tube method | 0.0009602
287.16 K, 100 kPa, Vibrating tube method | 0.0009609
287.78 K, 298200 kPa, Bellows volumetry | 0.0008796
287.98 K, 348900 kPa, Bellows volumetry | 0.0008706
288.05 K, 100 kPa, Vibrating tube method | 0.0009615
288.05 K, 49200 kPa, Bellows volumetry | 0.0009434
288.1 K, 299700 kPa, Bellows volumetry | 0.0008829
288.11 K, 148700 kPa, Bellows volumetry | 0.0009148
288.12 K, 198400 kPa, Bellows volumetry | 0.0009035
288.12 K, 248700 kPa, Bellows volumetry | 0.0008932
288.14 K, 99900 kPa, Bellows volumetry | 0.0009277
288.15 K, 99300 kPa, Bellows volumetry | 0.000926
288.16 K, 100 kPa, Vibrating tube method | 0.0009616
288.17 K, 49000 kPa, Bellows volumetry | 0.0009425
288.17 K, 349200 kPa, Bellows volumetry | 0.0008746
288.2 K, 249300 kPa, Bellows volumetry | 0.0008891
288.21 K, 148200 kPa, Bellows volumetry | 0.0009125
288.22 K, 99800 kPa, Bellows volumetry | 0.0009279
288.24 K, 199500 kPa, Bellows volumetry | 0.0009
288.28 K, 149900 kPa, Bellows volumetry | 0.0009146
288.29 K, 250100 kPa, Bellows volumetry | 0.0008927
288.31 K, 100 kPa, Vibrating tube method | 0.0009617
288.31 K, 199600 kPa, Bellows volumetry | 0.0009031
288.31 K, 299900 kPa, Bellows volumetry | 0.0008834
288.32 K, 349100 kPa, Bellows volumetry | 0.000875
288.34 K, 100 kPa, Vibrating tube method | 0.0009617
288.38 K, 48800 kPa, Bellows volumetry | 0.0009437
289.16 K, 100 kPa, Vibrating tube method | 0.0009622
290.15 K, 100 kPa, Vibrating tube method | 0.0009629
291.15 K, 100 kPa, Vibrating tube method | 0.0009636
292.15 K, 100 kPa, Vibrating tube method | 0.0009643
293.15 K, 100 kPa, Vibrating tube method | 0.0009649
294.15 K, 100 kPa, Vibrating tube method | 0.0009656
295.15 K, 100 kPa, Vibrating tube method | 0.0009663
296.16 K, 100 kPa, Vibrating tube method | 0.000967
297.16 K, 100 kPa, Vibrating tube method | 0.0009677
298.16 K, 100 kPa, Vibrating tube method | 0.0009684
299.16 K, 100 kPa, Vibrating tube method | 0.0009691
300.16 K, 100 kPa, Vibrating tube method | 0.0009698
301.16 K, 100 kPa, Vibrating tube method | 0.0009705
302.16 K, 100 kPa, Vibrating tube method | 0.0009712
303.16 K, 100 kPa, Vibrating tube method | 0.0009719
304.15 K, 100 kPa, Vibrating tube method | 0.0009726
305.15 K, 100 kPa, Vibrating tube method | 0.0009733
306.15 K, 100 kPa, Vibrating tube method | 0.000974
307.15 K, 100 kPa, Vibrating tube method | 0.0009747
308.15 K, 100 kPa, Vibrating tube method | 0.0009754
309.15 K, 100 kPa, Vibrating tube method | 0.0009761
310.15 K, 100 kPa, Vibrating tube method | 0.0009769
311.15 K, 100 kPa, Vibrating tube method | 0.0009776
312.15 K, 100 kPa, Vibrating tube method | 0.0009783
313.15 K, 100 kPa, Vibrating tube method | 0.000979
